Reference: patent US6635242B2, “Broad spectrum microbicidal and spermicidal compositions, devices, and methods” (The Pennsylvania State University, priority 1998, dated 2003)

Columns and labels:
HIV-1 (strain IIIB) = test: HIV-1 inactivation assay (HeLa-CD4-LTR-β-gal indicator cells); format: cell-based; details: 10 min 37° C.
Experimental: One day prior to the assay, HeLa-CD4-LTR-β-gal cells were seeded into 12-well culture dishes at a concentration of 8×10^4 cells per well. A high titer (10^7.17 TCID50/ml) virus stock of HIV-1 (strain IIIB; Advanced Biotechnologies, Inc., Columbia, Md.) was diluted 1:10 with RPMI 1640 supplemented with 10% FBS. To assess viral inactivation by SDS, 78 μl of diluted virus were mixed with 2 μl of detergent solution, and incubated for 10 min at 37° C. After the inactivation period, the virus and detergent were diluted with 720 μl R10 (1:10) supplemented with DEAE dextran (20 μg/ml final concentration). Aliquots of treated virus (300 μl) were then added to duplicate wells of HeLa cells and incubated at 37° C. for 2 hr. Following viral adsorption, 2 ml of fresh media (DMEM supplemented with 10% FBS, 0.1 mg/ml G418, and 0.05 mg/ml hygromycin B) were added to each well. After incubation at 37° C. and 5% CO2 for 48 hr post-infection, cells were fixed and stained for β-galactosidase expression.
It is established that N-9 can inactivate HIV-1. We compared inactivation of HIV-1 by a second non-ionic detergent, C31G, and by SDS. High titer virus stocks of HIV-1 were incubated with either C31G or SDS and then virus was assayed on indicator cells expressing β-gal under the control of the HIV-1 LTR. After 48 hours, cells were stained and the number of cells expressing increased β-gal counted. […].

BPV-1 = BPV-1 focus assay in C127 mouse cells; format: cell-based, bovine papillomavirus; details: for foci/plate Exp. 2 Day 14 / foci/plate Exp. 2 Day 17: 37° C. 10 minutes; for foci/plate Exp. 2 Day 14 / foci/plate Exp. 2 Day 17 / foci/plate Exp. 1 day 12: diluted 1:1000; for foci/plate Exp. 1 day 12: 37° C. 30 minutes
Experimental: Cell-free stocks of BPV-1 were prepared by extraction (10% w/v) of epidermal bovine warts in phosphate buffered saline (PBS). In order to detect the transforming ability of BPV-1, C127 mouse cells were seeded (3×10^5 cells per flask) into T-25^2 flasks. After 24 hr of growth, subconfluent cells were infected with BPV-1. For the positive controls, stock virus (20 μl) was diluted (1:1) with PBS, incubated at 37° C. for 10 min, diluted […] and then added (100 μl ) into the 5 ml of cell culture medium present on the cells. Cells were refed at 24 hours and subsequently 2 times weekly. The presence of morphologically transformed foci was counted after 2 weeks and then again at 3 weeks.
Virus inactivations were carried out in vitro by addition of concentrated SDS solutions to the virus stocks (20 μl of virus plus 20 μl of detergent) and subsequent incubation at 37° C. for 10 or 30 min as indicated. Following inactivation, virus was diluted 1000 fold to lower the detergent concentration and the preparations were immediately used for infection as above.
Although SDS could effectively reduce HSV-2 infectivity, it remained possible that this destruction was mediated by envelope removal. Because papillomaviruses are non-enveloped, the possibility remained that SDS would fail to inactivate these viruses. We utilized BPV-1 as a prototype PV because of its ability to rapidly (within 2 weeks) form multi-layered transformed foci in mouse fibroblasts in an in vitro assay. Table 3 describes results of two separate experiments in which stocks of BPV-1 were incubated at 37° C. with various concentrations of SDS (5% to 5×10^−4%) for either 10 or 30 minutes, diluted to lower the SDS concentration (to avoid cell toxicity) and then used to infect C127 cells. […] Table 4 lists several other commercially available detergents that were tested for possible inactivation of BPV-1. None of these detergents inactivated the morphologic transforming properties of the BPV-1.

CRPV = format: in vivo, cottontail rabbit papillomavirus; details: 0.05% SDS
[1] = test system: lymphocyte-, macrophage- and dual-tropic strains of HIV-1 (IIIB, BaL, 89.6); test: Cell-free HIV-1 inactivation (FIG. 5); format: cell-based, human immunodeficiency virus; details: HCLB or P4-R5 indicator cells
Experimental: Cell-free HIV-1 strain IIIB (A) was treated with N-9, C31G, or SDS, and used to infect HCLB cells. Cell-free HIV-1 strains BaL (M tropic) (B) and 89.6 (dual tropic) (C) were treated with N-9, C31G or SDS,and used to infect P4-R5 cells. Assays were conducted. Infectivity following exposure is expressed as a percentage relative to the number of β-gal-positive cells in duplicate wells infected with virus incubated in the absence of a microbicidal compound. Results shown in FIG. 5 are the average cell counts for a total of four wells per concentration in two independent experiments.

[2] = test system: HIV-1-infected SupT1 cells; test: Cell-associated HIV-1 infectivity (FIG. 6); format: cell-based, human immunodeficiency virus; details: 10 min at 37° C., co-culture with HCLB cells, FIG. 6(a)
Experimental: (A) SupT1 T lymphocytes (8×10^4)infected 5 days prior with HIV-1 strain IIIB were pelleted and resuspended in new media to remove cell-free virus. After exposure to selected concentrations of each microbicide for 10 min at 37° C., the cells were diluted 1:10 and co-cultured with HCLB cells for 2 h. Following one wash with PBS to remove the infected lymphocytes, the indicator cells were cultured and assayed. Infectivity following exposure is expressed as a percentage relative to the number of β-gal-positive cells in duplicate wells infected with HIV-1 infected SupT1 cells incubated in the absence of a microbicidal compound. Results shown in FIG. 6(a) are the average cell counts for a total of four wells per concentration in two independent experiments. (B) SupT1 T lymphocytes (8×10^4) were incubated with selected concentrations of each microbicide for 10 min at 37° C., and then diluted 1:10 with new media. Following a 2 h incubation period, the cells were assessed for viability. Cell survival after treatment is expressed as the fraction of viable cells relative to the number of mock-exposed cells. Results shown in FIG. 6(b) are the average of two experiments in which triplicate wells for each concentration were assayed.

[3] = 2.5 × 10^−3 % SDS during treatment
[4] = 5 × 10^−2 % SDS during treatment
[5] = 5 × 10^−3 % SDS during treatment
[6] = 5 × 10^−4 % SDS during treatment

SMILES: CCCCCCCCCCCCOS(=O)(=O)[O-].[Na+] [SDS, Sodium dodecyl sulfate]
- concentration (as low as) giving total inactivation of HIV-1 (HIV-1 (strain IIIB)): 0.025%
- foci/plate Exp. 2 Day 14 (BPV-1; [3]): 273
- foci/plate Exp. 2 Day 17 (BPV-1; [3]): 162
- foci/plate Exp. 1 day 12 (BPV-1; 5 % SDS during treatment): 0
- foci/plate Exp. 1 day 12 (BPV-1; 5 × 10^−1 % SDS during treatment): 0
- foci/plate Exp. 2 Day 14 (BPV-1; [4]): 0
- foci/plate Exp. 2 Day 17 (BPV-1; [4]): 0
- foci/plate Exp. 1 day 12 (BPV-1; [4]): 0
- foci/plate Exp. 2 Day 14 (BPV-1; [5]): 271
- foci/plate Exp. 2 Day 17 (BPV-1; [5]): 150
- foci/plate Exp. 1 day 12 (BPV-1; [5]): 0
- foci/plate Exp. 2 Day 14 (BPV-1; [6]): 229
- foci/plate Exp. 2 Day 17 (BPV-1; [6]): 151
- relative potency in dose response curves (BPV-1; compared with other alkyl sulfate group members): most potent
- inactivation of BPV-1 morphologic transformation of C127 cells (BPV-1; detergent 1% final concentration, 37° C., 10 min): completely eliminated virus foci
- concentration (as low as) that totally inactivates BPV-1 transforming ability (BPV-1; treatment of the virus at 37° C. for 10 minutes): 0.05%
- concentration (as low as) that totally inactivates BPV-1 transforming ability (BPV-1; treatment of the virus at 37° C. for 30 minutes): 0.005%
- development of papillomas at the six sites that received SDS treated preparations (FIG. 1b) (CRPV; 10^−1 dilution of virus stock, 10 min, 37° C., rabbits): delayed in the development of papillomas
- inactivation of CRPV (GMD of lesions, FIG. 1a) (CRPV; 10^−1 dilution of virus stock, 10 min, 37° C., rabbits, days 18-50): substantially inactivated
- sites inoculated with treated virus in which papillomas failed to develop (CRPV; 10^−2 dilution of CRPV stock, 37° C. 10 min, five rabbits, 3-6 weeks): 8 of 10
- inactivation of cell-free HIV-1 strains IIIB, BaL and 89.6 (infectivity, β-gal-positive cells) [1]: inactivated
- cell-associated infectivity of HIV-1-infected SupT1 cells [2]: can reduce the cell-associated infectivity
